Measured values taken from US10900069B2, “Devices and methods useful for detecting mechanical forces of ligand receptor interactions” (Emory University, priority 2016, dated 2021).

What was measured:
NIH/3T3 cells = assay: Brightfield imaging and F-actin staining of drug treated cells; assay type: cell-based
[1] = test system: integrin mediated tension in NIH/3T3 cells; assay: Dose-dependent inhibition of integrin mediated tension quantified by MCR; assay type: cell-based; conditions: NIH/3T3 cells pretreated 15 min with blebbistatin (10 nm-10 mm as printed), 1 h on 12 pN duplexes
Procedure: The non-muscle myosin II inhibitor blebbistatin, which diminishes myosin contractility and thus reduces forces transmitted by focal adhesions, was investigated. NIH/3T3 cells were pretreated with a range of blebbistatin concentrations (10 nm-[…]) for 15 min. The cells onto the surface were incubated with the 12 pN duplexes for 1 h, which was then followed by MCR readout. […] The MCR signal is a direct readout of integrin tension, measuring the dose-dependent dissipation of actomyosin contractile forces.
Cells were incubated with the cRGDfK-labelled duplex surfaces in DMEM for 1 h to promote cell adhesion. Surfaces were then washed with 0.1×SSC. Subsequently, surfaces were incubated in 1× CutSmart® buffer (20 mM Tris-acetate, 10 mM Mg(OAc)2, 50 mM KOAc, 100 μg/mL BSA, pH 7.9) with 100 nM circular template and 1 U/μL T4 ligase at 37° C. for 2 h to ensure complete ligation. Then, 250 μM dNTPs and 0.1 U/μL Phi 29 polymerase were added to the solutions and mixed well. The surfaces were incubated at 37° C. for 90 min to allow for rolling circle amplification. […] Finally, the surface was incubated with 100 nM Cy3B-FISH probe in hybridization buffer (0.5 M NaCl, 20 mM Tris-HCl, 20 mM EDTA, and 0.01% Tween, pH=7.4) at 37° C. for 30 min, rinsed with three washes of 0.1×TNT/0.1% SDS and subjected to fluorescence imaging. […]

`Cc1ccc2c(c1)C(=O)C1(O)CCN(c3ccccc3)C1=N2` (stereo not drawn) [blebbistatin] was tested, and the F-actin staining (NIH/3T3 cells; highest blebbistatin doses) was “more disorganized and shorter actin filaments”, the “cell shape by brightfield imaging” value (NIH/3T3 cells; increasing drug dose) was “cells become more rounded with increasing drug dose” and the MCR signal [1] was “dose-dependent relationship”.
